Patent US20230338531A1, “COMPOSITIONS AND USES OF CD45 TARGETED CHIMERIC ANTIGEN RECEPTOR MODIFIED T CELLS” (City of Hope, priority 2020, published 2023)

Experiments:
[1] = tested on: iCasp9-CD45-CAR lentivirus transduced HT1080 cells; test: Induced cell depletion by iCasp9 safety switch; assay type: cell-based; conditions: 100 μM, 24h, normalized to non-treated group
Experimental: To test the effects of a suicide switch as a safety precaution, experiments were conducted to investigate the induced cell depletion effect of rimiducid on iCasp9-CD45-CAR lentivirus transduced cells. iCasp9 can be activated by a specific chemical inducer of dimerization (CID) such as rimiducid, leading to efficient elimination of iCasp9 engineered cell.
The order of iCaspase 9 and CD45 scFv components can be switched (e.g., promoter-CD45CAR-T2A-iCaspase9-etc). HT1080 cells were transduced by lentivirus. […] Transduced HT1080 cells were seeded in 24 well plate and treated with 100 μM ramiducid for 24h normalized and compared to non-treated group, and the relative survival cell number was quantified (FIG. 10C). Treating the iCasp9-CD45-CAR cells with ramiducid reduced cell survival to 36% (FIG. 10C).

[2] = tested on: PTPRC (CD45) gene; test: CD45 protein expression after PTPRC (CD45) gene knockout by CRISPR/Cas9; assay type: cell-based; conditions: T cells after CRISPR/cas9 mediated CD45KO vs wild type
Excerpt: FIGS. 11A-11B show CD45 protein expression profile after PTPRC (CD45) gene knockout by CRISPR/Cas9 gene editing.
Cell Isolation, CD45 gene editing, CD45-CAR Lentiviral Transduction, and Ex Vivo Expansion_Leukapheresis products were obtained from consented research participants (healthy donors) under protocols approved by the City of Hope Internal Review Board (IRB). On the day of leukapheresis, peripheral blood mononuclear cells (PBMC) were isolated by density gradient centrifugation over Ficoll-Paque (GE Healthcare) followed by multiple washes in PBS/EDTA (Miltenyi Biotec). Cells were rested overnight at room temperature (RT) on a rotator, and subsequently washed and resuspended in X-VIVO T cell medium (Lonza) containing 10% FBS (complete X-VIVO). Up to 5.0×10^9 PBMC were incubated with anti-CD14 and anti-CD25 microbeads (Miltenyi Biotec) for 30 min at RT and magnetically depleted using the CliniMACS® system (Miltenyi Biotec) according to the manufacturer's protocol and these were termed depleted PBMCs (dPBMC). dPBMC were frozen in CryoStor® CS5 (StemCell Technologies) until further processing. […]
Experiments were then conducted to quantify the CD45 protein expression on wild type and CD45 knock out T cells after PTPRC (CD45) gene knockout by CRISPR/Cas9 gene editing. hCD45gRNA #3_E12, […] […]

Compound	relative survival cell number [1]	CD45 expression (flow cytometry, MFI) [2]
CC[C@H](C(=O)N1CCCC[C@H]1C(=O)O[C@H](CCc1ccc(OC)c(OC)c1)c1cccc(OCC(=O)NCCNC(=O)COc2cccc([C@@H](CCc3ccc(OC)c(OC)c3)OC(=O)[C@@H]3CCCCN3C(=O)[C@@H](CC)c3cc(OC)c(OC)c(OC)c3)c2)c1)c1cc(OC)c(OC)c(OC)c1 [ramiducid]	36%	
CUUCUACAAAAAAUAAUCUG (SEQ ID NO: 39) (listed as RNA, chemistry not given here) [hCD45gRNA #3_E12, gRNA targeting PTPRC exon 12]		decreasing expression of CD45
